Results on one molecule are retold here after patent publication US5498632A, “Esters of acyl carnitines with long-chain aliphatic alcohols and pharmaceutical compositions containing same having antibacterial activity” (Sigma-Tau Industrie Farmaceutiche Riunite S.p.A., priority 1992, dated 1996).

The subject of data set [1] is Campylobacter coli LI 048. Kind of data set: MIC in agar (agar dilution). The data set is classed as cell-based. The protocol:
(§1) In this experiment the activity of ST 722 and ST 712 against Campylobacter and Helicobacter was investigated.
(§2) Campylobacter fetus ATCC 27374, Campylobacter coli LI 048, Campylobacter jejuni 84-ISS, and Helicobacter pylori NCTC 11637.
(§3) The culture medium was Columbia agar base supplemented with 7% (V/V) defribinated horse blood (DHB) for Campylobacter strains, and the same medium additioned with Vitox (Oxoid) for Helicobacter strain.
(§4) The Campylobacter and Helicobacter strains, preserved at -80° C. in DHB containing 10% (V/V) glycerol, were thawed and grown, in their respective culture medium, in culture flasks, which were incubated for 48 hours at 37° C. in a 10% CO2 atmosphere. After this first growth cycle, the bacteria were allowed to go through a second growth cycle in the same conditions as above.
(§5) The bacterial "patina" was then harvested by resuspension in 4-5 ml of Mueller-Hinton broth, the turbidity of which was then assessed according to Mc Farland's criteria (BRAY W. E., Clinical Laboratory Methods, 5th Ed. C. V. MOSBY, St. Louis, Mo. 1957).
(§6) The Helicobacter suspension was adjusted to an approximate concentration of 1.0×10^9 and 1.0×10^8 organisms/ml, while the Campylobacter suspension was adjusted to 1.0×10^7 and 1.0×10^6 organisms/ml.
(§7) With a Steers-type multipoint inoculator (STEERS E., FOLTZ E. L., GRAVES S., RIDEN J., 1959. Inocula-replicating apparatus for routine testing of antibacterial susceptibility to antibiotics. Antibiot. Chemoter. 9: 307-311) 1-μl volumes of the above standardized suspensions were spot-transferred into the wells of a 96-well microtiter plate, which had previously been filled with 0.2 ml/well of Mueller-Hinton agar 5% DHB, containing the test substances at different concentrations.
(§8) The plates was then incubated for 48/72 hours at 37° C. in a 10% CO2 atmosphere.
In general terms: In agar dilution, organisms are placed on agar that contains the substance at set levels.

Data set [2] deals with Campylobacter jejuni 84-ISS. As to the kind of experiment: MIC in agar (agar dilution). It counts as cell-based. The protocol:
as §1, §2, §3, §4, §5, §6, §7, §8

Data set [3] has as its system Campylobacter fetus ATCC 27374. As to the kind of experiment: MIC in agar (agar dilution). It counts as cell-based. How it is done: as §1, §2, §3, §4, §5, §6, §7, §8
Data set [4] has as its system lymphoid organs (spleen and thymus), splenocytes. Kind of data set: Test 3: body, spleen and thymus weight and splenocyte concentration. The data set is classed as in vivo, mouse (male B6 D2 F1). To be noted: 100 mg/kg/day for 5 consecutive days, oral. How it is done: Evaluation of the effect of repeated oral administrations of ST 722 on the body, spleen and thymus weight, and on the splenocyte concentration in mice.
Male B6 D2 F1 mice (C. River) aged 10 weeks (5 animals each group) were orally treated with the substance ST 722 at the dose of 100 mg/kg/day for 5 consecutive days. Twenty-four hours after the last administration, the animals were sacrificed, the organs removed and weighed, and the splenocyte number determined.

For data set [5], the system named is Staphylococcus aureus (S. aureus LC1). Kind of data set: Protective effect in subcutaneous experimental infection in mice. The data set is classed as in vivo, Staphylococcus aureus in mouse (male CD1). To be noted: for Number of bacteria/mouse: 24 hours. The protocol:
Male CD1 (C. River) mice aged 9 weeks were used (4 animals per group).
A pathogenic strain of Staphylococcus aureus (S. aureus LC1), isolated from a systemic infection in nude mice, was utilized.
The bacterial cells (kept under liquid nitrogen) are thawed and seeded in 10 ml of TSB medium and finally incubated for approximately 18 hours at 37° C.
The culture is then diluted in sterile saline so as to have 2.2×10^7 bacterial cells in a volume of 0.2 ml.
ST 722 was administered subcutaneously, immediately after bacterial inoculation, at the doses of 5, 20, and 50 mcg in 0.2 ml of sterile saline (single treatment).
ST 722 was administered subcutaneously at a dose of 50 mcg (in 0.2 ml of sterile saline) immediately after bacterial inoculation and again 5 hours later, i.e. 100 total mcg per mouse (double treatment).
The "in vivo" experimental model described by Grunberg et al. (GRUNBERG, E., BERGER, J., BESKID, G., CLEELAND, R., PRINCE, N. H. and TITSWORTH, E., 1967. Studies on the "in vitro" and "in vivo" chemotherapeutic properties of the antibiotics myxin. Chemotherapia 12, 272-281) was utilized.
Briefly, it consisted of a subcutaneous injection into the center of the abdominal wall of the standardized bacterial suspension followed by the s.c. administration of the substance in the same area according to the 2 protocols above.
After 24 hours, the animals were sacrificed, and the abdominal wall (including the peritoneum) was exicised from each animal.
The tissue samples were first homogenized by a Potter-Elvehjem tissue grinder in 5 ml of a sterile saline, then a bacterial count was performed by plating the samples onto a S. aureus selective medium (Baird-Parker agar additioned with Ey tellurite enrichment), which allows to easily detect the number of Staphylococcus colonies.
The number of colonies scored in a series of dilutions for each single sample consents to calculate the number of bacterial cells present in the infected tissue sample as follows: [formula] Where Zi is the number of dilutions performed, Ni is the number of plates prepared for each dilution, and Ci is the total number of bacteria scored in each dilution.

The term MIC denotes the smallest concentration in the dilution series that meets the test's criterion for growth inhibition. A higher MIC goes with a need for much substance.

Each structure is given as a SMILES string. Where “and” joins values, the source holds several entries; their conditions need not be identical. Identical values can stand only once.

`CCCCCCCCCCCOC(=O)CC(C[N+](C)(C)C)OC(=O)CC(C)C` [ST 722, Isovaleryl-L-Carnitine Undecyl Ester Chloride]: the MIC came to 3.12 µg/mL in data set [1] (Campylobacter coli, LI048, I = inoculum of 1.0 × 10^3); 12.5 µg/mL in data set [2] (I = inoculum of 1.0 × 10^3); 12.5 µg/mL in data set [2] (II = inoculum of 1.0 × 10^4); 100 µg/mL in data set [3] (Campylobacter fetus, ATCC27374, I = inoculum of 1.0 × 10^3). Also, the MIC in agar in data set [1] (II = inoculum of 1.0 × 10^4) came to 3.12 µg/mL; in data set [3] (II = inoculum of 1.0 × 10^4), 100 µg/mL. The Body weight in data set [4] stood at 26.50 ± 0.53 g. In data set [4], the Spleen weight is recorded as 73.25 ± 3.84 mg. This molecule also returned a Thymus weight in data set [4] of 38.80 ± 3.01 mg. The “specific immunotoxic effects on the considered parameters” value in data set [4] is “lack of specific immunotoxic effects”. The Number of bacteria/mouse in data set [5] (double treatment s.c., 50 mcg twice (5 hours apart)) was 3.1×10^5 bacteria/mouse and 5.61 × 10^5 bacteria/mouse; in data set [5] (single treatment s.c., 5 mcg, control 1.11 × 10^8), 1.21 × 10^8 bacteria/mouse; in data set [5] (single treatment s.c., 20 mcg, control 1.11 × 10^8) it was 1.21 × 10^8 bacteria/mouse; in data set [5] (single treatment s.c., 50 mcg, control 1.11 × 10^8), 5.61 × 10^5 bacteria/mouse. For the same molecule, the “reduction of the infective process” value in data set [5] (single treatment s.c., 5 mcg) is recorded as “unable to reduce the infective process”. Moreover, the “reduction of bacterial infection extent” value in data set [5] (single treatment s.c., 20 and 50 mcg) is on record as “dose-dependently reduced in an appreciable manner the bacterial infection extent”.
